Assays:
[1] = tested on: IMQ-induced psoriasis-like skin lesions in mice; experiment: Imiquimod-induced psoriasis in mice, topical treatment; type: in vivo, male C57 mice; settings: topical 5% solution
Method: The 8 to 10 week old male C57 mice (18-20 g) received a daily topical dose of commercially available Imiquimod (IMQ) cream (5%, Imiquad;) on the shaved back and the right ear for 5 consecutive days, translating in a daily dose of 3.125 mg of the active compound to establish a model of IMQ-induced psoriasis. To examine the efficacy of topical solution of compound of formula (Ia), mice were randomly divided into 3 groups: IMQ-induced model group (IMQ) and IMQ + 5% compound of formula (Ia) solution and control group. Treatment was started on day 1 after the topical application of IMQ and continued upto day 5. All animals were assessed for the severity of the psoriasis-like skin condition, using 3 elements of the Psoriasis Area Severity Index (PASI), to assign a score of 0-4 (0, none; 1, mild; 2, moderate; 3, severe; 4, very severe) for each of the parameters erythema, scaling and thickness. The cumulative score (erythema plus scaling plus thickness) served to indicate the severity of inflammation (scale 0-12). Ear thickness was measured every day using thickness meter.

[2] = tested on: Mannan-induced psoriasis in mice; experiment: Mannan-induced psoriasis in mice, topical treatment; type: in vivo, male C57 mice; settings: topical 2.5% solution, day 5, FIG. 3
Method: The 8- to 10-week-old male C57 mice (18-20 g) received a single dose of mannan from Saccharomyces cerevisiae (20 mg/kg, intraperitoneal route, dissolved in saline). To examine the efficacy of topical solution of desidustat, mice were randomly divided into 3 groups: Normal control, mannan control- model group (MAN control), and mannan (MAN) + 2.5% compound of formula (Ia) solution. Normal control animals were given normal saline instead of mannan. Treatment was started on day 0 along with injection of mannan and continued up to day 5. Right ear thickness was measured every day using thickness meter.

[3] = tested on: HIF; settings: animal model of anemia; Jain et al., 2019; Joharapurkar et al., 2018; cited from earlier work
[4] = clinical trials; cited from earlier work

O=C(O)CNC(=O)c1c(O)c2ccccc2n(OCC2CC2)c1=O [compound of formula (Ia), Desidustat]
reduction of back skinfold thickness compared to IMQ ([1]; FIG. 2B): 15.5 ± 4.0%
PASI score decreased to, compared with IMQ-control ([1]; cumulative score, FIG. 1D): 41.9 ± 7.6%
reduction of erythema score (second mention) compared with IMQ-control ([1]; day 1 to day 5, FIG. 1A-C): 63.6 ± 11.5%
reduction of erythema score compared with IMQ-control ([1]; day 1 to day 5, FIG. 1A-C): 46.2 ± 7.7%
reduction of skin thickness score compared with IMQ-control ([1]; day 1 to day 5, FIG. 1A-C): 26.3 ± 10.4%
thickening of the ear reduced to, compared to IMQ-control ([1]; right ear, FIG. 2A): 30.8 ± 2.6%
reduction of right ear thickness compared to MAN control group [2]: 15.8 ± 2.5%
effect on HIF and erythropoiesis [3]: stabilizes HIF and thus induces erythropoiesis
effect on haemoglobin [4]: improves haemoglobin
